Like-named read-outs stand apart in the source and are kept apart here.
Legend:
human platelets [1] = experiment: Platelet activation markers (PAC-1, CD62P, CD63 binding) by flow cytometry; assay type: cell-based; conditions: for platelet activation markers PAC-1, CD62P, CD63 (in words): washed human platelets, 10 μM, 1 h treatment, flow cytometry (Fig. 5B)
Protocol: Fig. 5 (A) Functionalised, stapled Bim BH3 peptides induce PS exposure in platelets. […] (B) Stapled Bim BH3 peptides, but not ABT737 nor 21, induce platelet activation. Platelet activation markers (% positive platelets) were investigated following 1 h of peptide treatment. [drawing 10] PAC-1, [drawing 11] CD62P and [drawing 12] CD63 binding. Statistical significance compared to 20: ****P < 0.0001, ***P between 0.0001 and 0.0005, **P between 0.0010 and 0.0050 ns = non-significant.
(§1) Ethical approval for this study was obtained from the Faculty Research Ethics Committee at Anglia Ruskin University, Cambridge, UK.
(§2) 1.1 Preparation of washed platelet suspension
Blood was collected into 11 mM sodium citrate and washed platelets were prepared as follows: Platelet-rich plasma (PRP) was obtained by centrifugation (240 g, 15 min). Prostaglandin E1 (PGE1, 2 µM) was added to prevent premature platelet activation, and the plasma was centrifuged at 640 g for 15 min. Platelets were suspended in calcium free Tyrode‘s buffer (CFT buffer, containing: 140 mM NaCl, 5 mM KCl, 10 mM N-2-hydroxyethylpiperazine-N‘-2-ethanesulfonic acid (HEPES), 5 mM Glucose, 0.42 mM NaH2PO4, 12 mM NaHCO3, titrated to pH 7.4 with NaOH) to a final concentration of 2x108 platelet/mL and rested at 37 °C for 1 h prior to experimentation.
Treated washed platelet suspensions (1x10^7/mL) were analysed by flow cytometry using a C6 Accuri Flow Cytometer (Beckton Dickinson, UK), in the presence or absence of Annexin-V-PE (BD Biosciences, UK), anti-PAC-1 (BD Biosciences), anti-CD62 (BD Pharmingen, UK), or anti-CD-63P (BD Pharmingen).
Peptides were used to a final concentration of 10 µM (1 mM DMSO stock solutions). At least 10,000 events were acquired per experiment. The entire platelet population was primarily gated by FSC. […]
(§3) The washed platelet suspension was rested at 37 °C for 1 h before commencing the experiment. […] For real time measurments, the peptides were added to the 250 μL of washed platelet suspension after events were recorded for 1 minute and monitored for a further 4 min. […]
The suspensions were analysed by […]

Bcl-xL = target: T1, Bcl-xL (Homo sapiens, UniProt Q07817); experiment: Surface plasmon resonance (SPR) direct binding to Bcl-xL; conditions: 25 °C
T1 construct: made in house; host or cells: Escherichia coli BL21 Gold DE3
From the text: 1.9 Surface Plasmon Resonance (SPR)
The present method utilizes a Surface plasmon resonance (SPR)-based biosensor (BiacoreTM, GE Healthcare,
Uppsala, Sweden) to characterize Bcl-xL peptide interaction partners.
The SPR assay is configured to examine direct binding of peptide s to Bcl-xL derivatized sensor surfaces and
generate relative affinity values (KDapp) to provide relative ranking data for the series of peptides under
BiacoreTM T200 (GE Healthcare, Uppsala, Sweden) was used to conduct all experiments reported herein. Sensor
surface preparation and all interaction analyses experiments were performed at 25 °C utilizing a data collection
rate of 10 Hz. Reagents were purchased from GE Healthcare. Running buffer containing 10 mM Hepes, pH 7.4,
150 mM sodium chloride, 1 mM dithiothreitol, 1% DMSO and 0.05% polysorbate 20 were utilized throughout
surface preparation and all interaction analysis experiments.
Histidine tagged Bcl-xL protein was diluted to 5 μg/mL and captured onto Sensor chip NTA via the following
sequence of injections to achieve a target Bcl-xL surface density of 700 R.U. (response units). The carboxymethyl
dextran surface of Sensor chip NTA was activated by injection of an aqueous solution containing 50 mM N-hydroxy
succinimide (NHS) and 200 mM N-ethyl-N’-(dimethylaminopropyl) carbodiimide (EDC). 500 μM nickel sulfate (NiSO4)
was subsequently injected for one minute and utilized to capture Bcl-xL from a 5 μg/mL solution injected for one
minute. A further one-minute injection of 1M ethanolamine, pH 8.5 was performed to deactivate any unreacted
carboxymethylesters.3 The flow-rate for all injections during surface derivatization was 10 µl/min.

human platelets [2] = experiment: Confocal microscopy of platelets incubated with fluorescently labelled peptides; assay type: cell-based; conditions: live washed platelets, 10 µM FITC-labelled peptide, 15 minutes incubation, confocal imaging (Fig. SI_5)
Protocol: (§4) Fig. 3 A functionalised staple is required to induce peptide uptake into platelets. (A) Platelets were incubated with TAMRA labelled model peptides (10 μM final concentration) for 1 h (white), 2 h (grey) and 3 h incubation (black) and the percentage positive for TAMRA fluorescence was quantified using flow cytometry. (B) Peptides showing high uptake within the first hour were analysed during first 5 min following treatment. Changes in platelet-associated fluorescence were recorded in real time using flow cytometry. Unlabelled platelets were recorded for 30 s prior to addition of the given peptide. (C) Platelets were incubated with 10 μM of TAMRA-model peptides for 1 h prior to imaging by confocal microscopy. ^‡ […]
Peptide uptake experiments of the most permeable model peptides 5, 13–16 were repeated in the presence of platelet-rich plasma (PRP) to ensure realistic conditions (ESI, Fig. SI_2a ^†).
Figure SI_3. […]
Peptides were used to a final concentration of 10 µM. […] Images of TAMRA-labelled model peptide stained platelets were acquired after 1 h incubation1 using with excitation at 565 nm and emission was detected with a 560 -615 nm BP filter. […]
were acquired after 15 minutes incubation1 using excitation at 488 nm and emission was detected with […]

human platelets [3] = experiment: Peptide uptake in washed platelet suspension by flow cytometry; assay type: cell-based; conditions: for positive platelets (TAMRA fluorescence), peptide uptake: TAMRA-labelled model peptide 10 μM (1 mM DMSO stock), 37 °C in the dark, 3 h incubation, flow cytometry, mean ± SEM, at least three donors
Protocol: Washed platelet suspensions were incubated with peptides for varying periods of time and cellular uptake was quantified using flow cytometry. […] Only 34.9 ± 7.8% of platelets were fluorescent following 8 (poly-lysine) treatments after 3 hours. Changes in fluorescence were not observed with other peptides (Fig. 3A).
as §4
In order to explore the rate of peptide uptake, changes in platelet fluorescence were monitored during the first 5 minutes (Fig. 3B) and after 15, 30, 45 and 60 minutes following treatment with peptides (Fig. SI_1, ESI ^†). More than 50% of platelets became fluorescent during the first 15 minutes of incubation with peptides 13–16, with a further increase after the first 45 minutes. Some 40–50% of platelets were fluorescent after 15 minutes following treatment with peptides 2, 5 or 8. No further increase was observed thereafter (Fig. SI_1, ESI ^†).
as §1, §2
Blood was collected into 11 mM sodium citrate and washed platelets were prepared as follows: Platelet-rich plasma (PRP) was obtained by centrifugation (240 g, 15 min). Prostaglandin E1 (PGE1, 2 µM) was added to prevent premature platelet activation, and the plasma was centrifuged at 640 g for 15 min. […]
Treated washed platelet suspensions (1x10^7/mL) were analysed by flow cytometry using a C6 Accuri Flow Cytometer (Beckton Dickinson, UK), in the presence or absence of Annexin-V-PE (BD Biosciences, UK), anti-PAC-1 (BD Biosciences), anti-CD62 (BD Pharmingen, UK), or anti-CD-63P (BD Pharmingen). […]
as §3

human platelets [4] = experiment: PS exposure (annexin-V binding) by flow cytometry; assay type: cell-based; conditions: washed human platelets, 10 μM, 37 °C, time course up to 3 h, flow cytometry (Fig. 5A)
Protocol: Platelet activation markers (% positive platelets) were investigated following 1 h of peptide treatment. […] CD63 binding.
Human blood was collected from healthy volunteers, who had not taken medication for two weeks,
following informed consent in accordance with the Declaration of Helsinki. Blood was collected into 11 mM sodium citrate and washed platelets were prepared as follows: Platelet-rich plasma (PRP) was obtained by centrifugation (240 g, 15 min). Prostaglandin E1 (PGE1, 2 µM) was added to prevent premature platelet activation, and the plasma was centrifuged at 640 g for 15 min. […]
PS exposure was assessed after incubation of 50 µL of washed platelet suspensions at 37 °C in 445 µL of […]
under the protection from direct light and analysed by flow cytometry.
Platelet activation markers (PAC -1, CD62P and CD63 binding) were assessed after incubation of 3 µL of […]
antibody and the peptide (1.1 μL of 1 mM stock solution in DMSO) . The suspensions were analysed by […]

[5] = SPR Biacore T200, His-tagged Bcl-xL on Sensor chip NTA, 7-point 2-fold dilution 33.3 nM to 1.03 nM, steady state fit, Table S1, read-out: Rel. Kdapp
[6] = washed human platelet suspension

T1 sequence (Q07817 whole entry): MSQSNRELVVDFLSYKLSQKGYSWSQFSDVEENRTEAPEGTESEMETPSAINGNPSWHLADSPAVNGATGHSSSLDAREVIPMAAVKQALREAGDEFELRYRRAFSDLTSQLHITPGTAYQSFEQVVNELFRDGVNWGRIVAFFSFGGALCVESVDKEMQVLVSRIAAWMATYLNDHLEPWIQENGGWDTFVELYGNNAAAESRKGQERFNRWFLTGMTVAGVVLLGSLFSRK

## CN(C)CC[C@H](CSc1ccccc1)Nc1ccc(S(=O)(=O)NC(=O)c2ccc(N3CCN(Cc4ccccc4-c4ccc(Cl)cc4)CC3)cc2)cc1[N+](=O)[O-] [ABT737]
Human platelets [1]; washed human platelets in CFT buffer pH 7.4, 10 μM, 37 °C, after 1 hour, flow cytometry, mean ± SEM
  PAC1-positive platelets (integrin αIIbβ3 activation): ineffective
Human platelets [1]
  platelet activation markers PAC-1, CD62P, CD63 (in words): no increase in any activation marker

## CC[C@H](C)[C@H](NC(C)=O)C(=O)N[C@@H](Cc1c[nH]c2ccccc12)C(=O)N[C@H](C(=O)N[C@@H](C)C(=O)N[C@@H](CCC(N)=O)C(=O)N[C@@H](CCC(=O)O)C(=O)N[C@@H](CC(C)C)C(=O)N[C@@H](CCCNC(=N)N)C(=O)N[C@@]1(C)CCCC=CCCC[C@@](C)(C(=O)N[C@@H](Cc2ccccc2)C(=O)N[C@@H](CC(N)=O)C(=O)N[C@@H](C)C(=O)N[C@@H](Cc2ccc(O)cc2)C(=O)N[C@@H](Cc2ccc(O)cc2)C(=O)N[C@@H](C)C(=O)N[C@@H](CCCNC(=N)N)C(=O)N[C@@H](CCCNC(=N)N)C(N)=O)NC(=O)[C@H](CC(=O)O)NC(=O)CNC(=O)[C@H]([C@@H](C)CC)NC1=O)[C@@H](C)CC [Bim SAHBa, reference compound]
Bcl-xL; [5]
  Kd: > 0.033 µM
Bcl-xL; SPR, His-tagged Bcl-xL captured on Sensor chip NTA, steady state affinity, as quoted in main text
  relative KDapp: reduced binding affinity compared to the wild-type and peptide 19
Human platelets [2]
  localisation / platelet permeability of FITC-labelled Bim BH3 peptide: able to enter the platelet cytosol

## CC(C)C[C@@H]1NC(=O)[C@H](CC(C)C)NC(=O)[C@H](CCCNC(=N)N)NC(=O)[C@H](Cc2c[nH]c3ccccc23)NC(=O)[C@H](CC(C)C)NC(=O)[C@H](CC(=O)O)NC(=O)[C@@H](NC(=O)[C@H](Cc2ccccc2)NC(=O)[C@@H](NC(=O)[C@H](CCC(=O)O)NC(=O)CCCCCNC(=O)c2ccc3c(c2)C(=O)OC32c3ccc(N(C)C)cc3Oc3cc(N(C)C)ccc32)[C@@H](C)O)CCCn2cc(nn2)-c2cc(C(=O)N[C@@H](CCCNC(=N)N)C(=O)N[C@@H](CCCNC(=N)N)C(N)=O)cc(c2)-c2cn(nn2)CCC[C@@H](C(=O)N[C@@H](CCC(=O)O)C(=O)N[C@@H](CC(N)=O)C(N)=O)NC1=O [compound 4]
Human platelets [3]; [6]
  positive platelets (TAMRA fluorescence), peptide uptake: 73.0 ± 13.3%

## CC(C)C[C@@H]1NC(=O)[C@H](CC(C)C)NC(=O)[C@H](CCCNC(=N)N)NC(=O)[C@H](Cc2c[nH]c3ccccc23)NC(=O)[C@H](CC(C)C)NC(=O)[C@H](CC(=O)O)NC(=O)[C@@H](NC(=O)[C@H](Cc2ccccc2)NC(=O)[C@@H](NC(=O)[C@H](CCC(=O)O)NC(=O)CCCCCNC(=O)c2ccc3c(c2)C(=O)OC32c3ccc(N(C)C)cc3Oc3cc(N(C)C)ccc32)[C@@H](C)O)CCCn2cc(nn2)-c2cc(C(=O)N[C@@H](CCCNC(=N)N)C(=O)N[C@@H](CCCNC(=N)N)C(=O)N[C@@H](CCCNC(=N)N)C(N)=O)cc(c2)-c2cn(nn2)CCC[C@@H](C(=O)N[C@@H](CCC(=O)O)C(=O)N[C@@H](CC(N)=O)C(N)=O)NC1=O [compound 5]
Human platelets [3]; [6]
  positive platelets (TAMRA fluorescence), peptide uptake: 87.0 ± 7.3%
Human platelets [3]; washed human platelet suspension, TAMRA-labelled model peptide 10 μM, 37 °C, first 15 minutes of incubation, flow cytometry (Fig. SI_1)
  fluorescent platelets, peptide uptake: 40–50%
Human platelets [3]; washed human platelets, TAMRA-labelled peptide, continuous flow cytometry during first 5 minutes of treatment (Fig. 3B)
  change in platelet-associated fluorescence in real time: rapid increase in platelet fluorescence

## CC[C@H](C)[C@H](NC(C)=O)C(=O)N[C@@H](Cc1c[nH]c2ccccc12)C(=O)N[C@H](C(=O)N[C@@H](C)C(=O)N[C@@H](CCC(N)=O)C(=O)N[C@@H](CCC(=O)O)C(=O)N[C@@H](CC(C)C)C(=O)N[C@@H](CCCNC(=N)N)C(=O)N[C@H]1CCCn2cc(nn2)-c2cc(C(=O)N[C@@H](CCCNC(=N)N)C(=O)N[C@@H](CCCNC(=N)N)C(=O)N[C@@H](CCCNC(=N)N)C(N)=O)cc(c2)-c2cn(nn2)CCC[C@@H](C(=O)N[C@@H](Cc2ccccc2)C(=O)N[C@@H](CC(N)=O)C(=O)N[C@@H](C)C(=O)N[C@@H](Cc2ccc(O)cc2)C(=O)N[C@@H](Cc2ccc(O)cc2)C(=O)N[C@@H](C)C(=O)N[C@@H](CCCNC(=N)N)C(=O)N[C@@H](CCCNC(=N)N)C(N)=O)NC(=O)[C@H](CC(=O)O)NC(=O)CNC(=O)[C@H]([C@@H](C)CC)NC1=O)[C@@H](C)CC [peptide 19]
Bcl-xL; [5]
  Kd: 0.0262 µM
Bcl-xL; SPR, His-tagged Bcl-xL captured on Sensor chip NTA, steady state affinity, as quoted in main text, read-out: relative KDapp
  Kd: 0.026 µM

## CC[C@H](C)[C@H](NC(C)=O)C(=O)N[C@@H](Cc1c[nH]c2ccccc12)C(=O)N[C@H](C(=O)N[C@@H](C)C(=O)N[C@@H](CCC(N)=O)C(=O)N[C@@H](CCC(=O)O)C(=O)N[C@@H](CC(C)C)C(=O)N[C@@H](CC(=O)O)C(=O)N[C@H]1CCCn2cc(nn2)-c2cc(C(=O)N[C@@H](CCCNC(=N)N)C(=O)N[C@@H](CCCNC(=N)N)C(=O)N[C@@H](CCCNC(=N)N)C(N)=O)cc(c2)-c2cn(nn2)CCC[C@@H](C(=O)N[C@@H](Cc2ccccc2)C(=O)N[C@@H](CC(N)=O)C(=O)N[C@@H](C)C(=O)N[C@@H](Cc2ccc(O)cc2)C(=O)N[C@@H](Cc2ccc(O)cc2)C(=O)N[C@@H](C)C(=O)N[C@@H](CCCNC(=N)N)C(=O)N[C@@H](CCCNC(=N)N)C(N)=O)NC(=O)[C@H](CC(=O)O)NC(=O)CNC(=O)[C@H]([C@@H](C)CC)NC1=O)[C@@H](C)CC [peptide 21]
Human platelets [1]
  platelet activation markers PAC-1, CD62P, CD63 (in words): nonspecific activation was not observed
Bcl-xL; SPR Biacore T200, His-tagged Bcl-xL on Sensor chip NTA, 7-point 2-fold dilution 33.3 nM to 1.03 nM, steady state fit, Table S1
  Rel. Kdapp: No binding
Human platelets [4]
  PS exposure / annexin-V binding (in words): did not result in PS exposure
